These results are taken from ChEMBL document CHEMBL1129837, “Quantitative structure-activity relationships of benzoyliminothiadiazoline derivatives as angiotensin II receptor antagonists” (Bioorg Med Chem Lett, 1997).

In this assay the target is T1, Type-1 angiotensin II receptor B (Rattus norvegicus, UniProt P29089).
T1 sequence (P29089 whole entry): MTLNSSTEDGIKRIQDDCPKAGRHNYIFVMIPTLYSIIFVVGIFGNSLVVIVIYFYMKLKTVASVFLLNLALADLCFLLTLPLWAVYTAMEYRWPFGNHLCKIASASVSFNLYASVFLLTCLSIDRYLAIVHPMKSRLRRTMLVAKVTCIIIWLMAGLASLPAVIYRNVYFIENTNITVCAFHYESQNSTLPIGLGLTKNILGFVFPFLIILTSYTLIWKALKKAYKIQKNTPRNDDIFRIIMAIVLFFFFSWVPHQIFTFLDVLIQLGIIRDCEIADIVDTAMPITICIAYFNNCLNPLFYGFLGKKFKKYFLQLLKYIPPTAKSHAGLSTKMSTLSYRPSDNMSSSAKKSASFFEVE
As to the kind of experiment: Inhibition of binding of [125I]All at the angiotensin II type 1 receptor (AT1 receptor) in rat liver membranes. The assay is classed as cell membranes, Membrane.
In general, Ki refers to a measure of affinity in units of concentration, obtained from inhibition or displacement. A lower Ki goes with higher affinity. `CCc1nn(Cc2ccc(-c3ccccc3-c3nn[nH]n3)cc2)/c(=N/C(=O)c2ccc(C(F)(F)F)cc2)s1` showed a Ki of 557 nM. In turn, `CCc1nn(Cc2ccc(-c3ccccc3-c3nn[nH]n3)cc2)/c(=N/C(=O)c2ccc(C)cc2)s1` had a Ki of 48 nM. Regarding `CCc1nn(Cc2ccc(-c3ccccc3-c3nn[nH]n3)cc2)/c(=N/C(=O)c2cccc(C)c2)s1`, the Ki is 79.4 nM. As to `Cc1nn(Cc2ccc(-c3ccccc3-c3nn[nH]n3)cc2)/c(=N/C(=O)c2ccccc2Cl)s1`, the Ki was 18 nM.

As for `CCc1nn(Cc2ccc(-c3ccccc3-c3nn[nH]n3)cc2)/c(=N/C(=O)c2ccc([N+](=O)[O-])cc2)s1`, the Ki was 141 nM. In turn, `CCc1nn(Cc2ccc(-c3ccccc3-c3nn[nH]n3)cc2)/c(=N/C(=O)c2ccccc2C)s1` gave a Ki of 35.9 nM. `CCc1nn(Cc2ccc(-c3ccccc3-c3nn[nH]n3)cc2)/c(=N/C(=O)c2ccccc2I)s1`: the affinity, expressed as Ki, was 3.86 nM.

Turning to `CCc1nn(Cc2ccc(-c3ccccc3-c3nn[nH]n3)cc2)/c(=N/C(=O)c2ccccc2[N+](=O)[O-])s1`, the Ki is 3.23 nM. Take `O=C(/N=c1\sc(C2CC2)nn1Cc1ccc(-c2ccccc2-c2nn[nH]n2)cc1)c1ccccc1Cl`: the affinity, expressed as Ki, was 15.1 nM. This Ki lies about 4.7-fold higher than the previous one. `CCc1nn(Cc2ccc(-c3ccccc3-c3nn[nH]n3)cc2)/c(=N/C(=O)c2ccccc2F)s1` showed a Ki of 7.24 nM. Against the preceding compound, the Ki is about 2.1-fold lower. In turn, `CCc1nn(Cc2ccc(-c3ccccc3-c3nn[nH]n3)cc2)/c(=N/C(=O)c2cccc(F)c2)s1` showed a Ki of 134 nM. As to `Cc1nn(Cc2ccc(-c3ccccc3-c3nn[nH]n3)cc2)/c(=N/C(=O)c2ccccc2C(=O)O)s1`, the inhibitory constant (Ki) is 2.69 nM. This Ki lies about 50-fold lower than the previous one. `CCCCc1nn(Cc2ccc(-c3ccccc3-c3nn[nH]n3)cc2)/c(=N/C(=O)c2ccccc2Cl)s1`: the Ki is 200 nM. This Ki lies about 74-fold higher than the previous one. On to `CCCc1nn(Cc2ccc(-c3ccccc3-c3nn[nH]n3)cc2)/c(=N/C(=O)c2ccccc2Cl)s1`, for which the Ki was 22 nM. Compared with the last compound, the Ki is about 9.1-fold lower. Next, `CCc1nn(Cc2ccc(-c3ccccc3-c3nn[nH]n3)cc2)/c(=N/C(=O)c2ccc(OC)cc2)s1`: 28 nM; `CCc1nn(Cc2ccc(-c3ccccc3-c3nn[nH]n3)cc2)/c(=N/C(=O)c2ccccc2C(F)(F)F)s1`: 6 nM. In the case of `CCc1nn(Cc2ccc(-c3ccccc3-c3nn[nH]n3)cc2)/c(=N/C(=O)c2ccccc2)s1`, the affinity corresponds to a Ki of 36 nM.

Take `CCc1nn(Cc2ccc(-c3ccccc3-c3nn[nH]n3)cc2)/c(=N/C(=O)c2ccccc2Cl)s1`: the Ki was 3.39 nM.

`CCc1nn(Cc2ccc(-c3ccccc3-c3nn[nH]n3)cc2)/c(=N/C(=O)c2cccc(Cl)c2)s1` had a Ki of 190 nM. Turning to `CCc1nn(Cc2ccc(-c3ccccc3-c3nn[nH]n3)cc2)/c(=N/C(=O)c2ccc(Br)cc2)s1`, the affinity corresponds to a Ki of 320 nM. Next, `CCc1nn(Cc2ccc(-c3ccccc3-c3nn[nH]n3)cc2)/c(=N/C(=O)c2ccccc2Br)s1`: 3.47 nM. In the case of `CCc1nn(Cc2ccc(-c3ccccc3-c3nn[nH]n3)cc2)/c(=N/C(=O)c2ccc(F)cc2)s1`, the affinity, expressed as Ki, was 102 nM. Next, `CCc1nn(Cc2ccc(-c3ccccc3-c3nn[nH]n3)cc2)/c(=N/C(=O)c2ccccc2OC)s1`: 2.5 nM; `CCc1nn(Cc2ccc(-c3ccccc3-c3nn[nH]n3)cc2)/c(=N/C(=O)c2ccc(Cl)cc2)s1`: 330 nM. `CCCc1nn(Cc2ccc(-c3ccccc3-c3nn[nH]n3)cc2)/c(=N/C(=O)c2ccccc2C(=O)O)s1` gave an inhibition constant (Ki) of 2 nM. This Ki lies about 160-fold lower than the previous one. On to `CCc1nn(Cc2ccc(-c3ccccc3-c3nn[nH]n3)cc2)/c(=N/C(=O)c2cccc(C(F)(F)F)c2)s1`, for which the Ki is 447 nM. Turning to `CCc1nn(Cc2ccc(-c3ccccc3-c3nn[nH]n3)cc2)/c(=N/C(=O)c2cccc(Br)c2)s1`, the Ki is 300 nM. This Ki and that of the compound before are within 1.5-fold of each other. Next, `CCc1nn(Cc2ccc(-c3ccccc3-c3nn[nH]n3)cc2)/c(=N/C(=O)c2ccccc2C(=O)O)s1`: 0.619 nM. `CCc1nn(Cc2ccc(-c3ccccc3-c3nn[nH]n3)cc2)/c(=N/C(=O)c2cccc([N+](=O)[O-])c2)s1` gave a Ki of 141 nM. Compared with the last compound, the Ki is about 230-fold higher.

`CCc1nn(Cc2ccc(-c3ccccc3-c3nn[nH]n3)cc2)/c(=N/C(=O)c2cccc(OC)c2)s1`: the Ki is 49 nM. This Ki is about 2.9-fold lower than that of the compound before.
